Reference: patent US20110039809A1 (priority 2008, published 2011)

How the values were obtained:
[1] = cited from earlier work
[2] = tested on: deoxypyridinoline (DPD); test: Clinical trial: bone resorption marker deoxypyridinoline (DPD), urine marker; format: in vivo, human; settings: for DPD, GLM least square mean after 4 months: daily 20 μg or weekly 140 μg oral, adjusted for baseline, age, body mass index, postmenopausal women
Excerpt: (§1) Each group included five subjects.
(§2) Equimolar quantities of both substances were investigated.
(§3) Each dosage was consumed orally at breakfast.
(§4) Treatment duration was 4 months.

[3] = tested on: bone-specific alkaline phosphatase (BAP); test: Clinical trial: bone-specific alkaline phosphatase (BAP), serum marker; format: in vivo, human; settings: for BAP, GLM least square mean after 4 months: daily 20 μg or weekly 140 μg oral, adjusted for baseline, age, body mass index, postmenopausal women
Excerpt: as §1, §2, §3, §4

[4] = Clinical trial: plasma 25-OH D after single oral bolus (pharmacokinetics); settings: single oral dose 140 μg of each active
Description: Subjects were randomly assigned to one of […] treatment groups (i.e., daily, weekly, bolus as single dose, and bolus as combination dose). Each group included five subjects. They are followed for four months in Zürich, Switzerland during the winter.
Equimolar quantities of both substances were investigated. The regimen was based on 20 μg/day (or its equivalent on a weekly basis) of 25-OH D3.
Each dosage was consumed orally at breakfast. The duration of the study was four months for the “Daily” and “Weekly” groups. Subjects enrolled in the “Bolus” group consumed orally a single dosage at the second study visit.
Plasma concentrations of 25-OH D3 (e.g., peak and steady state) were determined by obtaining samples from the subjects at various times after the dosage was ingested. […] The assessments continued on Monday of Weeks 3, 5, 7, 9, 11, 13 and 15.

[5] = daily 20 μg or weekly 140 μg, 4 months, repeated measurement analysis over 13 visits
[6] = daily or weekly treatment, identical dosages, 4 months

Vitamin D
Blood concentration of 25-hydroxyvitamin D after ingestion of the safe upper level as dietary supplement ([1]; 250 μg/day vitamin D): about 200 nmol/L

C=C1CC[C@H](O)C/C1=C/C=C1\CCC[C@]2(C)[C@@H]([C@H](C)CCCC(C)(C)O)CC[C@@H]12 [25-OH D3, 25-hydroxyvitamin D3]
DPD, GLM least square mean after 4 months [2]: 8.2 nmol/mmol creatine
DPD change vs. Daily/weekly Vitamin D3 [2, 5]: −17.0%
Reduction of DPD versus Vitamin D3 [2, 6]: 17.0%
BAP, GLM least square mean after 4 months [3]: 74.7 IU/L
BAP change vs. Daily/weekly Vitamin D3 [3, 5]: −2.4%
Reduction of BAP versus Vitamin D3 [3, 6]: 2.4%
Time span with increase in plasma 25-OH D levels by at least 30 nmol/L [4]: 4 to 49 h

C=C1CC[C@H](O)C/C1=C/C=C1\CCC[C@]2(C)[C@@H]([C@H](C)CCCC(C)C)CC[C@@H]12 [Vitamin D3, cholecalciferol]
DPD, GLM least square mean after 4 months [2]: 9.8 nmol/mmol creatine
BAP, GLM least square mean after 4 months [3]: 76.5 IU/L
Time span with increase in plasma 25-OH D levels by at least 30 nmol/L [4]: no increase of that magnitude was observed

25-hydroxyvitamin D
Blood concentration above which hypercalcemia may occur ([1]; in vivo): greater than 375 nmol/L
